Test results taken from patent US8063065B2, “Azaindazole compounds as CCR1 receptor antagonists” (Boehringer Ingelheim International GmbH, priority 2008, dated 2011).

Target: T1, CCR1 (Homo sapiens, UniProt P32246)
T1 sequence (P32246 1-355): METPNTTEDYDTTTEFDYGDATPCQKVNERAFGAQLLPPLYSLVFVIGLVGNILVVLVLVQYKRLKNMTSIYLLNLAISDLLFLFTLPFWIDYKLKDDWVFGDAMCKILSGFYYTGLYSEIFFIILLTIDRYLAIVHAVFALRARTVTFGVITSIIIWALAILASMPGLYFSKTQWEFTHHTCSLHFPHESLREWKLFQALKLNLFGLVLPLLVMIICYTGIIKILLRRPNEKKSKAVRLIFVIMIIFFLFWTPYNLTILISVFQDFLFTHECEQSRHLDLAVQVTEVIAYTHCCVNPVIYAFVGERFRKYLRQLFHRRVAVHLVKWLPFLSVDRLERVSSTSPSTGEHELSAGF
Assay: Method A: calcium flux in CCR1 transfected cells (Fluo-4 NW, FLIPR TETRA), block of the CCR1/MIP-1α interaction
Type: cell-based
Conditions: Method A: Fluo-4 NW, MIP-1 alpha at EC80
Protocol: Compounds are assessed for the ability to block the interaction of CCR1 and MIP-1α in a functional cellular assay measuring calcium flux in CCR1 transfected cells.
Method A: Non-adherent cells purchased from Chemicon Corporation (HTS005C), stably expressing recombinant CCR1 and G-alpha-16 are grown in RPMI 1640 medium (Mediatech 10-080-CM) supplemented with 10% heat-inactivated FBS, 0.4 mg/mL Geneticin and penicillin/streptomycin. On the day of the assay, the cells are transferred to a beaker and dye-loaded in bulk using a Fluo-4 NW Calcium Assay Kit with probenecid (Invitrogen F36205) at 0.8E6 cells/mL for 1 hour at room temperature. After 1 hour, they are seeded in a 384-well tissue culture-treated plate at a density of 20,000 cells/well. Appropriately diluted test compound is added to the well to achieve a top concentration of 3,000 nM (diluted 4-fold with 10 doses total). The final concentration of DMSO is 1%. The buffer is HBSS (Invitrogen 14025) with 20 mM HEPES at pH 7.4. The cells are allowed to incubate 1 hour in the dark at room temperature. The plates are transferred to the FLIPR TETRA where MIP-1 alpha in 1% BSA is added at the EC80 final concentration. Wells+/−MIP-1 alpha containing diluted DMSO instead of compound serve as the controls. Intracellular calcium flux is recorded on the FLIPR TETRA, using excitation at 470/495 nm and emission at 515/575 nm. Data are analyzed using Activity Base software.

Row | Structure (SMILES) | IC50 [nM]
1 | CS(=O)(=O)c1cccc(CNC(=O)c2cncc3c2cnn3-c2ccc(Cl)cc2)c1 [1-(4-Chlorophenyl)-1H-pyrazolo[3,4-c]pyridine-4-carboxylic acid 3-methanesulfonyl-benzylamide] | 7
2 | O=C(NCc1ccc(S(=O)(=O)N2CCC(O)C2)cc1)c1cncc2c1cnn2-c1ccc(Cl)cc1 (stereo not shown) [1-(4-Chlorophenyl)-1H-pyrazolo[3,4-c]pyridine-4-carboxylic acid 4-(3-hydroxy-pyrrolidine-1-sulfonyl)-benzylamide] | 2
3 | CS(=O)(=O)c1ccc(CNC(=O)c2cncc3c2cnn3-c2ccc(Cl)cc2)cn1 [1-(4-Chlorophenyl)-1H-pyrazolo[3,4-c]pyridine-4-carboxylic acid (6-methanesulfonyl-pyridin-3-ylmethyl)-amide] | 34
4 | CCCC(NC(=O)c1cncc2c1cnn2-c1ccc(Cl)cc1)c1ccnc(Br)c1 (stereo not shown) [1-(4-Chlorophenyl)-1H-pyrazolo[3,4-c]pyridine-4-carboxylic acid [1-(2-bromopyridin-4-yl)-butyl]-amide] | 2
5 | CCCC(NC(=O)c1cncc2c1cnn2-c1ccc(Cl)cc1)c1ccnc(S(C)(=O)=O)c1 (stereo not shown) [1-(4-Chlorophenyl)-1H-pyrazolo[3,4-c]pyridine-4-carboxylic acid [1-(2-methanesulfonyl-pyridin-4-yl)-butyl]-amide] | 0.4
6 | CCCC(NC(=O)c1cncc2c1cnn2-c1ccc(Cl)cc1)c1ccc(S(C)(=O)=O)nc1 (stereo not shown) [1-(4-Chlorophenyl)-1H-pyrazolo[3,4-c]pyridine-4-carboxylic acid [1-(6-methanesulfonyl-pyridin-3-yl)-butyl]-amide] | 1
7 | O=C(NCc1ccc(S(=O)(=O)N2CCOCC2)nc1)c1cncc2c1cnn2-c1ccc(Cl)cc1 [1-(4-Chlorophenyl)-1H-pyrazolo[3,4-c]pyridine-4-carboxylic acid [6-(morpholine-4-sulfonyl)-pyridin-3-ylmethyl]-amide] | 3
8 | C[C@H](NC(=O)c1cncc2c1cnn2-c1ccc(Cl)cc1)c1cncc(Br)c1 [1-(4-Chlorophenyl)-1H-pyrazolo[3,4-c]pyridine-4-carboxylic acid [(S)-1-(5-bromopyridin-3-yl)-ethyl]-amide] | 2
9 | CC[C@H](NC(=O)c1cncc2c1cnn2-c1ccc(Cl)cc1)c1cncc(Br)c1 [1-(4-Chlorophenyl)-1H-pyrazolo[3,4-c]pyridine-4-carboxylic acid [(S)-1-(5-bromopyridin-3-yl)-propyl]-amide] | 0.6
10 | C[C@H](NC(=O)c1cncc2c1cnn2-c1ccc(Cl)cc1)c1cncc(S(C)(=O)=O)c1 [1-(4-Chlorophenyl)-1H-pyrazolo[3,4-c]pyridine-4-carboxylic acid [(S)-1-(5-methanesulfonyl-pyridin-3-yl)-ethyl]-amide] | 4
11 | CC[C@H](NC(=O)c1cncc2c1cnn2-c1ccc(Cl)cc1)c1cncc(S(C)(=O)=O)c1 [1-(4-Chlorophenyl)-1H-pyrazolo[3,4-c]pyridine-4-carboxylic acid [(S)-1-(5-methanesulfonyl-pyridin-3-yl)-propyl]-amide] | 0.4
12 | COCCN(c1ccc(CNC(=O)c2cncc3c2cnn3-c2ccc(Cl)cc2)cn1)S(C)(=O)=O [1-(4-Chlorophenyl)-1H-pyrazolo[3,4-c]pyridine-4-carboxylic acid {6-[methanesulfonyl-(2-methoxy-ethyl)-amino]-pyridin-3-ylmethyl}-amide] | 5
13 | CNS(=O)(=O)c1ccc(CNC(=O)c2cncc3c2cnn3-c2ccc(F)cc2)c(Cl)c1 [1-(4-Fluorophenyl)-1H-pyrazolo[3,4-c]pyridine-4-carboxylic acid 2-chloro-4-methylsulfamoyl-benzylamide] | 0.2
14 | O=C(NCc1cc(C(F)(F)F)cc(C(F)(F)F)c1)c1cncc2c1cnn2-c1ccc(F)cc1 [1-(4-Fluorophenyl)-1H-pyrazolo[3,4-c]pyridine-4-carboxylic acid 3,5-bis-trifluoromethyl-benzylamide] | 3

Further lines, results first:

Row | IC50 [nM] | Structure (SMILES)
15 | 7 | O=C(NCc1cc(Cl)cc(Cl)c1)c1cncc2c1cnn2-c1ccc(F)cc1 [1-(4-Fluorophenyl)-1H-pyrazolo[3,4-c]pyridine-4-carboxylic acid 3,5-dichloro-benzylamide]
16 | 1 | CNS(=O)(=O)c1ccc(CNC(=O)c2cncc3c2cnn3-c2ccc(F)cc2)cc1F [1-(4-Fluorophenyl)-1H-pyrazolo[3,4-c]pyridine-4-carboxylic acid 3-fluoro-4-methylsulfamoyl-benzylamide]
17 | 24 | CS(=O)(=O)c1ccc(CNC(=O)c2cncc3c2cnn3-c2ccc(F)cc2)cc1O [1-(4-Fluorophenyl)-1H-pyrazolo[3,4-c]pyridine-4-carboxylic acid 3-hydroxy-4-methanesulfonyl-benzylamide]

Target: T1, CCR1
Assay: Method B: calcium flux in CCR1 transfected cells (Calcium 4 dye, […] FDSS6000), block of the CCR1/MIP-1α interaction
Type: cell-based
Conditions: Method B: Calcium 4 dye, MIP-1alpha at EC80
Method in brief: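 Calcium flux on an FDSS6000 was triggered by MIP-1α at its EC80 in stably CCR1/G-alpha-16-expressing non-adherent cells. Before this, Calcium 4-loaded cells were preincubated with compound in HBSS, 20 mM HEPES pH 7.4, 1% DMSO: 30 min at 37 C plus 30 min at room temperature. Ten 4-fold doses began at 3,000 nM, with ±MIP-1α DMSO wells as controls.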

Row | IC50 [nM] | Structure (SMILES)
18 | 1 | CC[C@H](NC(=O)c1cncc2c1cnn2-c1ccc(F)cc1)c1ccnc(S(=O)(=O)CCC(=O)OC)c1 [3-[4-((S)-1-{[1-(4-Fluorophenyl)-1H-pyrazolo[3,4-c]pyridine-4-carbonyl]-amino}-propyl)-pyridine-2-sulfonyl]-propionic acid methyl ester]
19 | 6.3 | CC[C@H](NC(=O)c1cncc2c1cnn2-c1ccc(F)cc1)c1cncc(S(=O)(=O)CCC(=O)OC)c1 [3-[5-((S)-1-{[1-(4-Fluorophenyl)-1H-pyrazolo[3,4-c]pyridine-4-carbonyl]-amino}-propyl)-pyridine-3-sulfonyl]-propionic acid methyl ester]
20 | 35 | COC(=O)CCS(=O)(=O)c1cccc([C@H](C)NC(=O)c2cncc3c2cnn3-c2ccc(F)cc2)n1 [3-[6-((S)-1-{[1-(4-Fluorophenyl)-1H-pyrazolo[3,4-c]pyridine-4-carbonyl]-amino}-ethyl)-pyridine-2-sulfonyl]-propionic acid methyl ester]
21 | 3 | CC[C@H](NC(=O)c1cncc2c1cnn2-c1ccc(F)cc1)c1cccc(S(=O)(=O)CCC(=O)OC)n1 [3-[6-((S)-1-{[1-(4-Fluorophenyl)-1H-pyrazolo[3,4-c]pyridine-4-carbonyl]-amino}-propyl)-pyridine-2-sulfonyl]-propionic acid methyl ester]
22 | 4 | CCC(NC(=O)c1cncc2c1cnn2-c1ccc(F)cc1)C1CCN(C(=O)OC(C)(C)C)CC1 (stereo not shown) [4-(1-{[1-(4-Fluorophenyl)-1H-pyrazolo[3,4-c]pyridine-4-carbonyl]-amino}-propyl)-piperidine-1-carboxylic acid tert-butyl ester]
23 | 12 | CC[C@H](NC(=O)c1cncc2c1cnn2-c1ccc(F)cc1)c1ccnc(C(=O)O)c1 [4-((S)-1-{[1-(4-Fluorophenyl)-1H-pyrazolo[3,4-c]pyridine-4-carbonyl]-amino}-propyl)-pyridine-2-carboxylic acid]
24 | 4 | COC(=O)C[C@H](NC(=O)c1cncc2c1cnn2-c1ccc(F)cc1)c1ccnc(S(C)(=O)=O)c1 [(S)-3-{[1-(4-Fluorophenyl)-1H-pyrazolo[3,4-c]pyridine-4-carbonyl]-amino}-3-(2-methanesulfonyl-pyridin-4-yl)-propionic acid methyl ester]
25 | 11 | CCOC(=O)Cn1ccc([C@H](CC)NC(=O)c2cncc3c2cnn3-c2ccc(F)cc2)n1 [[3-((S)-1-{[1-(4-Fluorophenyl)-1H-pyrazolo[3,4-c]pyridine-4-carbonyl]-amino}-propyl)-pyrazol-1-yl]-acetic acid ethyl ester]
26 | 25 | CCOC(=O)Cn1cc([C@H](CC)NC(=O)c2cncc3c2cnn3-c2ccc(F)cc2)cn1 [[4-((S)-1-{[1-(4-Fluorophenyl)-1H-pyrazolo[3,4-c]pyridine-4-carbonyl]-amino}-propyl)-pyrazol-1-yl]-acetic acid ethyl ester]
27 | 4 | CCOC(=O)CS(=O)(=O)c1cc(CNC(=O)c2cncc3c2cnn3-c2ccc(F)cc2)ccn1 [[4-({[1-(4-Fluorophenyl)-1H-pyrazolo[3,4-c]pyridine-4-carbonyl]-amino}-methyl)-pyridine-2-sulfonyl]-acetic acid ethyl ester]
28 | 26 | CCC(NC(=O)c1cncc2c1cnn2-c1ccc(F)cc1)c1nc(C(=O)NCC(=O)OC)c(C)o1 (stereo not shown) [{[2-(1-{[1-(4-Fluorophenyl)-1H-pyrazolo[3,4-c]pyridine-4-carbonyl]-amino}-propyl)-5-methyl-oxazole-4-carbonyl]-amino}-acetic acid methyl ester]
